Assay results reported in US6849594B1, “Purification and use of human recombinant cartilage oligomeric matrix protein” (priority 1999, dated 2005).
Read-outs that look alike come from different tables or passages of the source. Blank lines part the entries; values can stand above or below the substance they belong to.

Experiments:
[1] = target: T1, hCOMP (Homo sapiens, UniProt P49747); experiment: Affinity co-electrophoresis (ACE) binding of hCOMP to glycosaminoglycans
T1 construct: transfected with full length human COMP cDNA, they were able to process and secrete hCOMP; made in house
Text: Affinity co-electrophoresis (ACE) was used to quantify the binding of hCOMP to heparin and other GAGs, including chondroitin sulfates from cartilage. Values are given in nM, and in cases where a standard deviation is reported, represent the mean of two determinations.
Affinity co-electrophoresis (ACE) (San Antonio et al., 1993) was used to quantify the binding of hCOMP to heparin and other commercially available GAGs derived from tissue sources, including chondroitin sulfates from cartilage, and values of Kd were measured. […] This is in agreement with our observation that hCOMP binds to heparin-Sepharose. […] To better ascertain potential roles of GAGs and proteoglycans in COMP function, heparan sulfate, keratan sulfate, and three chondroitin sulfates (chondroitin-6-sulfate, C6S; chondroitin-4-sulfate; C4S; and dermatan sulfate, DS) were tested for binding to hCOMP in the presence of 2 mM calcium using ACE (Table 1).
To further determine whether the conformation of the calcium-binding type 3 repeats was critical to GAG binding, hCOMP was tested for binding to heparin and C6S in the presence of 5 mM EDTA. […] While heparin binding was reduced only 3- to 5-fold by EDTA treatment, C6S binding appeared to be abolished by this treatment.

[2] = test system: TC1a cells (chondrocyte-derived cell line), monolayer culture; experiment: Attachment of TC1a cells grown in monolayer to coated protein; format: cell-based, human
Description: To prepare cells grown in monolayer for attachment assays, cells grown in 10 cm tissue culture plates were washed twice with HEPES buffered saline (HBS), and treated with 1 ml of 0.1 mg/ml TPCK-treated trypsin (Worthington, Lakewood, N.J.) in HBS at 37° C. for 5 minutes. Trypsinization was stopped with 2 ml of 0.5 mg/ml soybean trypsin inhibitor (Sigma) in HBS with 1 mM CaCl2 (HBS/C). Cells were flushed off the plate as a single cell suspension, sedimented and washed twice with trypsin inhibitor solution. Subsequently, cells were resuspended in HBS/C containing 1% heat-inactivated bovine serum albumin (HI-BSA) at a final concentration of 2-2.5×10^5 cells/ml and used for attachment assays.
Immulon II 96-well plates (DYNEX, Chantilly, Va.) were coated with COMP at various concentrations in HBS/C or HBS containing 5 mM EDTA (HBS/E) at 4° C. overnight. The plates were then blocked with 1% HI-BSA in HBS/C or HBS/E, respectively, for 30 minutes at 37° C. After blocking, some wells coated with proteins in HBS/E were reduced with 20 mM dithiothreitol (DTT) in HBS/E for 30 minutes at 22° C. Wells were washed 4 times with HBS/C before addition of 100 μl of cells to each well and incubated for 2 hours at 37° C. At the end of the incubation, after examination under phase contrast microscopy, the plate was washed 3 times with HBS/C. The amount of cells attached to each well was quantified using CyQuant kit (Molecular Probes, Eugene, Oreg.).

[3] = test system: Human costochondral cartilage cells; experiment: Transwell chondrocyte migration assay; format: cell-based; settings: for chondrocyte migration: coated on underside of transwell membranes, 37° C., four hours
Description: (§1) Furthermore, as discussed in Example 5, COMP is a motility factor for chondrocyte migration. Human costochondral cartilage cells were used to test if COMP is active in promoting chondrocyte migration. COMP, as well as TSP1 and Vitrogen (Cohesion; Palo Alto, Calif.), at different concentrations, was coated on the underside of membranes of transwell migration assay wells. Chondrocyte cells, prepared as in the attachment assays, were loaded into the wells. Migration was allowed to go on at 37° C. for four hours. Nonmigratory cells remaining inside the wells were removed with cotton swabs. Cells which migrated to the underside of the membranes were quantified using a CyQuant kit.
as §1, with “Human” for “Furthermore, as discussed in Example 5, COMP is a motility factor for chondrocyte migration. Human”, “concentrations, were” for “concentrations, was”, “assay wells (Costar, Cambridge, Mass.).” for “assay wells.”, “Cells that” for “Cells which”, “CyQuant kit (Molecular Probes).” for “CyQuant kit.”

[4] = test system: TC1a cells after 7- to 10-day culture in alginate beads; experiment: Attachment of TC1a cells after alginate culture to coated protein; format: cell-based, human
Text: An alginate culture system was used to re-differentiate the chondrocytes as described (Robbins and Goldring, 1998; Goldring, 1998; Hauselmann et al., 1994; Bonaventure et al., 1994). Briefly, cells in monolayer culture were trypsinized and washed with phosphate buffered saline. Cells were resuspended in 1.2% solution of Keltone, LVCR alginate (Monsanto, St. Louis, Mo.) in 0.15 M NaCl at a final concentration of 4×10^6 cells/ml. The cell suspension was then passed through a 22 Gauge needle into 102 mM CaCl2. Ten minutes after instant gelation, beads were washed with 0.15 M NaCl, and cultured in 1:1 DME/F-12 containing 10% FBS and 25 μg/ml ascorbate. To prepare cells in the alginate culture system for attachment assays, 7- to 10-day alginate bead cultures were solubilized with 55 mM citrate/0.15 M NaCl, pH 6.0 solution as described (Robbins and Goldring, 1998). Released cells were washed once with PBS and once with HBS/C before they were resuspended in HBS/C containing 1% BSA at a final concentration of 2-2.5×10^5 cells/ml.
Immulon II 96-well plates (DYNEX, Chantilly, Va.) were coated with COMP at various concentrations in HBS/C or HBS containing 5 mM EDTA (HBS/E) at 4° C. overnight. […] The amount of cells attached to each well was quantified using CyQuant kit (Molecular Probes, Eugene, Oreg.). […]

[5] = Direct calcium binding by equilibrium dialysis using 45CaCl2; settings: 0.3 mM free calcium concentration; mean±SD
Description: Direct calcium binding to COMP was measured by equilibrium dialysis using ^45CaCl2. Briefly, TSP1 and COMP were dialyzed in Slide-A-Lyzer dialysis units (Pierce, Rockford, Ill.) against dialysis buffer containing 0.3 mM CaCl2 and […] of ^45CaCl2. At the end of dialysis, 10 μl of protein sample and dialysis buffer were taken out for scintillation counting and protein determination. The number of calcium ions bound was calculated. At 0.3 mM free calcium concentration, each TSP1 subunit bound 10±2 calcium ions (mean±SD of four data points). This is in agreement with previous reports where 11-12 calcium ions were reported to bind to each TSP1 subunit (Lawler and Simons, 1983; Misenheimer and Mosher, 1995). Under the same conditions, each subunit of COMP bound 11±1 calcium ions. This is the first time it is shown that COMP binds calcium ions, and the result is consistent with the presence of highly homologous type 3 calcium binding repeats in COMP and other TSP family members.
Direct calcium binding to COMP was measured by equilibrium dialysis using ^45CaCl2. Briefly, TSP1 and COMP were dialyzed in Slide-A-Lyzer dialysis units (Pierce, Rockford, Ill.) against dialysis buffer containing 0.3 mM CaCl2 and 10 mCi/ml of ^45CaCl2. […] The number of calcium ions bound was calculated. […]

[6] = previous reports (Lawler and Simons, 1983; Misenheimer and Mosher, 1995); cited from earlier work
[7] = 2 mM Ca2+, ACE, > means no binding observed at any protein concentration, read-out: COMP, Kd in 2 mM Ca^2+
[8] = 5 mM EDTA, ACE, > means no binding observed at any protein concentration, read-out: COMP, Kd in 5 mM EDTA

T1 sequence (P49747 21-757): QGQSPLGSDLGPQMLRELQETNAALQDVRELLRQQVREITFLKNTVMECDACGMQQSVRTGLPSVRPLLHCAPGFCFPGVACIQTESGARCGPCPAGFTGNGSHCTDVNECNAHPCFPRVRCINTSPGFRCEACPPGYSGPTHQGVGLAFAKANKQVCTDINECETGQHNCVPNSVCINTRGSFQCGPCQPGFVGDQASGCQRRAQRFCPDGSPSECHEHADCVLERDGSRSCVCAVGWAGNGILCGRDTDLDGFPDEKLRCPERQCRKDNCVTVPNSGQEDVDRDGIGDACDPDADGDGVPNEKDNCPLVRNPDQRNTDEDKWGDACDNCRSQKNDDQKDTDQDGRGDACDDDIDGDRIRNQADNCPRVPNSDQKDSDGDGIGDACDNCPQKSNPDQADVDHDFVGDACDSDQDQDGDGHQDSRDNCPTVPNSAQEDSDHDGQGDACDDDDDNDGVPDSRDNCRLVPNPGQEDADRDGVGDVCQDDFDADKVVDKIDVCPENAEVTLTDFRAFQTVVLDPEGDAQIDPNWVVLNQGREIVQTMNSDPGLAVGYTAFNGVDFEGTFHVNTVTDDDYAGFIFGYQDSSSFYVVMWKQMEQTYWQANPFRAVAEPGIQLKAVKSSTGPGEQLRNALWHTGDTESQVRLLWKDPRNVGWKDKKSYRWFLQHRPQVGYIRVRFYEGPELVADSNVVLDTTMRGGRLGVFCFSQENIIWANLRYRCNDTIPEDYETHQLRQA

Kd [1, 7]: 89 nM | Kd [1, 8]: 450 nM
Substance: Heparin

calcium ions bound per subunit [5]: 11±1 calcium ions
Substance: cartilage oligomeric matrix protein [hCOMP]
effect on attachment of treating with EDTA before coating ([2]; EDTA before coating): no obvious effect | protein coating concentration at which cells also spread ([2]; calcium replete conformation): ≥ 5 µg/mL | coating concentration at which cells attached and spread ([2]; dithiothreitol-treated): 1 µg/mL | cell attachment ([2]; protein in calcium replete conformation, coated on wells): supported cell attachment in a dose-dependent manner | effect of reduction after coating on adhesive activity ([2]; reduced with DTT after coating, especially at low coating concentration): increased its adhesive activity | chemoattractant potency compared with TSP1 [3]: more potent chemoattractant than TSP1 | chondrocyte migration [3]: good chemoattractant | chemoattractant potency compared with TSP1 ([3]; same concentration of 10 μg/ml): more potent chemoattractant than TSP1 | cell attachment ([4]; calcium replete form, re-differentiated TC1a cells): able to support attachment | decrease of level of attachment by chelation of calcium before coating ([4]; chelation of calcium before coating): approximately 50%

calcium ions bound per subunit [5]: 10±2 calcium ions
Substance: human thrombospondin 1 [TSP1]
calcium ions bound per subunit, previous reports [6]: 11-12 calcium ions | chondrocyte migration [3]: promotes chondrocyte migration | chondrocyte migration ([3]; listed as TSP 1): promoted chondrocyte migration

Kd [1, 7]: > 11000 nM | binding to hCOMP (in words) ([1]; in the presence of calcium, ACE): did not bind
Substance: keratan sulfate [KS]

More lines, now with the values behind:

Substance: chondroitin-6-sulfate [C6S]
Kd [1, 7]: 403 nM | binding to hCOMP after EDTA treatment (in words) ([1]; 5 mM EDTA): abolished | Kd [1, 8]: > 11000 nM

Substance: chondroitin-4-sulfate [C4S]
Kd [1, 7]: 583 nM

Substance: heparan sulfate [HS]
Kd ([1]; in the presence of calcium, ACE, read-out: binding to hCOMP (Kd)): 1200 nM

Substance: dermatan sulfate [DS]
Kd [1, 7]: 328 nM
